Results taken from article PMC4361473, “A New System for Profiling Drug-Induced Calcium Signal Perturbation in Human Embryonic Stem Cell–Derived Cardiomyocytes” (Journal of Biomolecular Screening, 2015).
Blank lines part the entries; values can stand above or below the compound they belong to.

Experiments:
Cytiva hSCCMs [1] = assay: SALVO profiling of drug-evoked Ca2+ signal perturbation (fluo-4 confocal imaging); conditions: for Effect on Ca2+ handling (SALVO parameters): spontaneously oscillating Cytiva, concentrations up to 30 µM
From the text: Cytiva hSCCMs were derived from monolayer differentiation of an H7 hESC cell line that had been expanded under feeder-free conditions and then subjected to a proprietary differentiation protocol (GE Healthcare, Piscataway, NJ, USA).[13] […] Cells were thawed and seeded into 7-mm^2 chambers created by the adherence of silicon gaskets (CultureWell MultiWell 3 mm in diameter, 1-mm-depth inserts [Life Technologies]) on glass-bottomed culture chambers (In Vitro Scientific, Sunnyvale, CA, USA) that had been precoated with Matrigel (BD Biosciences, Franklin Lakes, NJ, USA), Franklin Lakes, NJ, USA diluted 1:30 (v/v) in Knockout DMEM (Life Technologies, Carlsbad, CA, USA). […] Cells were allowed to adhere to the coverslip for 2 h before the dish was filled with RPMI/B27 (2 mL). Medium was exchanged every 48 h.
Cells were incubated with fluo-4 AM (5 µM) (Life Technologies) for 1 h at 37°C before coverslips were flooded with RPMI/B27 (2 mL). […] Cells were maintained at 37 °C throughout experiments. […] The application of caffeine (5 mM final concentration) was used to trigger sarcoplasmic reticulum (SR) Ca^2+ release and thereby estimate the intra-SR Ca^2+ store load.
Taking our lead from Uhlen’s method of using spectral analysis to investigate the organization of Ca^2+ signals,[14] we developed SALVO to decode the spatiotemporal patterning of Ca^2+ oscillations within individual cells and across multicellular populations. SALVO outputs 30 parameters that describe Ca^2+ signal organization,[15] but for the purposes of this study, we focused on five parameters: oscillation rate (rate, Hz) and four other parameters that quantify the amplitude and temporal patterning of Ca^2+ oscillation: (1) amplitude heterogeneity index (AHI) and (2) temporal heterogeneity index (THI), statistical assessments of signal amplitude and temporal variability within single cells, respectively; (3) intertransient noise (ITN), defined as the Ca^2+ signal variability occurring between Ca^2+ oscillations and that extends the use of signal variability (SV) to measure point-by-point differences in very low-amplitude Ca^2+ signals[6],[10],[12]; and (4) synchronization, an index of the temporal coincidence of Ca^2+ oscillation maxima occurring across cells in the population. The calculation of these parameters is described in Supplementary Figure S1. SALVO is implemented using a Python-based computer program.[15] The detection of signal maxima and minima over a 30-s period in data obtained from 6 to 20 cells in each instance was performed using SALVO’s autodetection algorithms (based on spline detect or threshold detection methods) or by manual assignation of the start, peak, and end of each Ca^2+ spike. SALVO outputs were archived and interrogated using a custom-built SQL-based database system (DB Miner, CHG, NCS, SBJ).
Baseline assessments of Ca^2+ signals in fluo-4–loaded cells prior to the addition of drug (control) were established as described above.
After each addition and following a period of equilibration (approximately 90 s), fluo-4–dependent Ca^2+ signals were acquired for 30 s. Using this protocol, the same population of cells was imaged throughout the entire drug addition sequence.
In all experiments, operators were blinded to the identities of the drugs under test throughout all phases of postexperimental data analysis.
Supplementary Table 2. EC20 values for Ca2+ perturbation.
Drug concentrations (nM) that produced a 20% change from control values (no drug) were calculated for each SALVO parameter from regression analysis of […]
The effective therapeutic plasma concentration of free drug (ETPCunbound, nM) was calculated in Supplementary Table 1.
Calculate percentage effect size (E) for each SALVO parameter, normalized to Ew = E x λ control conditions, at each drug concentration Effect size (E,%) λ
Cumulative Ew for drug concentrations of 0.1, 1, 10, 100 and 1000 nM for The relationship between E and λ is given by […]

hSCCM = test system: hSCCM; parameters: method as in PMID 24052561; conditions: cited from earlier work
[2] = categories assigned by Redfern and colleagues; cited from earlier work
Cytiva hSCCMs [3] = assay: Whole-cell current-clamp recording of spontaneous action potentials (APD90); assay type: cell-based, human; conditions: drug at EC20 concentration, 3 min; Fridericia-corrected; blebbistatin-immobilized cells
Method: Cells in 35-mm glass-bottomed culture dishes containing a superfusion insert (AutoMate PCP-1; Digitimer Ltd., Welwyn Garden City, UK) were mounted on the stage of an inverted microscope (CKX-41; Olympus, Tokyo, Japan) and were superfused with normal Tyrode (NT) solution (containing [in mM] NaCl, KCl, MgCl2 [1], CaCl2 [2], HEPES [10], glucose; pH 7.4 with NaOH) or NT-containing drugs maintained at 37 °C using a heated jacket.
Cells were whole-cell clamped with 3- to 4-MΩ patches and an intrapipette solution (containing in [mM] KCl, MgCl2 [1.75], CaCl2 [5.37], EGTA [10], HEPES [10], and Na2ATP [4]; pH 7.2 with KOH) in current-clamp (IC) mode using a CV-7B headstage and MultiClamp 700B amplifier controlled by MultiClamp software (Molecular Devices, Sunnyvale, CA). Data were digitized and acquired using a Digidata 1322a card and pClamp software, respectively (Molecular Devices). Action potentials were sampled at a rate of 20 kHz and low pass (Bessel) filtered at 10 kHz.
Spontaneous cell contracture was terminated using blebbistatin (5 µM, 10 min), an agent that inhibits myofilament shortening and thereby negates patch-clamp recording instability but preserves normal Ca^2+ cycling.[20] […] Action potential (AP) recordings from blebbistatin-immobilized cells were taken under control (no-drug) conditions (1 min) and following the switch to drug-containing NT. APD90, corrected for AP cycle length using Fridericia’s method (APD90(corr) = APD90/cycle length^[…]), was calculated from five consecutive APs following a 3-min exposure of the cells to drug.
Figure 4. Investigating the effect of cardiovascular-active drugs on Cytiva APD90. (A) Cells were exposed to drugs at EC20 concentrations for 3 min (Suppl. Table S2). APD90 values were corrected for beat period using Fridericia’s algorithm. Data points represent individual paired experiments (n = 6). Representative control (gray) and drug-treated (black) action potential traces are shown. (B) APD90 plotted as the percentage change relative to the paired control value (no drug). *p < 0.05. **p < 0.01.

[4] = maximal effective therapeutic plasma concentration; ref Redfern et al. (2003) Cardiovasc. Res. 58:32-45; cited from earlier work
[5] = Effective therapeutic plasma concentration (ETPC, ETPCunbound); assay type: in vivo, human
From the text: There is also the issue regarding the relevance of drug potency determined in vitro to clinical dosing in humans. Guo and colleagues[25],[27] used an impedance-derived index of arrhythmic beating in hSCCMs to derive a predicted proarrhythmic score (PPS) that took into account the therapeutically relevant total concentration of drug in human plasma (defined as Ceff). More recently, Clements and Thomas[13] used a similar approach to generate a predictive risk score (PRS) based on their measurement of field potential duration (FPD) in Cytiva.
Supplementary Table 1. Calculating the free plasma concentration of […]
described by Redfern et al. (Redfern et al. (2003) Cardiovasc. Res. 58:32-45) was used to calculate the levels of free drug (ETPCunbound). ETPC for nadolol and valdecoxib were from Krukemyer et al. (Pharm. Res. (1990) 9:953-956) and Yuan et al. (Drug Metab. Disp. (2002) 30:1013-1021), respectively. The values for drug-protein binding were obtained from DrugBank (www.drugbank.ca).

[6] = parameters: method as in DrugBank (www.drugbank.ca); conditions: from drug-protein binding values; ref DrugBank (www.drugbank.ca); cited from earlier work

Structure (SMILES): CS(=O)(=O)c1ccc(C2=C(c3ccccc3)C(=O)OC2)cc1 [rofecoxib]
Effect on Ca2+ handling (SALVO parameters) (Cytiva hSCCMs [1]): inconsistent bioactivity
Hazard identification by impedance measurements (hSCCM): failed to identify the potential hazard

Effect on APD90 (action potential duration) (Cytiva hSCCMs [3]): increased APD90
ETPCunbound ([5]; effective therapeutic plasma concentration of free drug, as listed in Supplementary Table 2): 8 nM
ETPCunbound ([5]; free plasma concentration calculated from ETPC and free drug %, Supplementary Table 1): 0.2 nM
Structure (SMILES): COc1ccc(CCN2CCC(Nc3nc4ccccc4n3Cc3ccc(F)cc3)CC2)cc1 [Astemizole, astemizole]
TdP risk category [2]: category 2
ETPC [4]: 8 nM
EC20 AHI (Cytiva hSCCMs [1]; 20% change from control in amplitude heterogeneity index, regression of Figure 3 data): 100 nM
EC20 Synch (Cytiva hSCCMs [1]; 20% change from control in intercellular synchronization, regression of Figure 3 data): 15 nM
EC20 ITN (Cytiva hSCCMs [1]; 20% change from control in intertransient noise, regression of Figure 3 data): 320 nM
EC20 THI (Cytiva hSCCMs [1]; 20% change from control in temporal heterogeneity index, regression of Figure 3 data): 55 nM
Predicted proarrhythmic score (PPS) (Cytiva hSCCMs [1]; PPS = ETPCunbound/EC20): < 1
EC20 Rate (Cytiva hSCCMs [1]; drug concentration producing a 20% change from control (no drug) in Ca2+ oscillation rate, regression of Figure 3 data): 50 nM
SALVO toxicity score, rank order of the extent of Ca2+ perturbation (Cytiva hSCCMs [1]; five-parameter SALVO output integrated over 0.1-1000 nM, normalized to control): astemizole > thioridazine > cisapride > flecainide > valdecoxib > sotalol > nadolol
Effect on Ca2+ handling (SALVO parameters) (Cytiva hSCCMs [1]): large effect sizes in multiple parameters
Free drug [6]: 2%
